Data published in patent US7652047B2, “Phenylamino isothiazole carboxamidines as MEK inhibitors” (Ardea Biosciences, Inc., priority 2005, dated 2010).
pIC50: −log10 of the molar value.

target: T1, MEK1^CA (human GST-MEK1, constitutively active, Ser218Asp and Ser222Asp) (Homo sapiens, UniProt Q02750, S218D/S222D); assay: MEK1 enzymatic activity assay (MEK1^CA / ERK2 / MBP, [γ-33P]ATP incorporation); type: biochemical; conditions: Table 1, compounds of formula I; read-out: Avg IC50
T1 construct: GST; made in house; host or cells: Escherichia coli
Procedure, shortened: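 Cascade assay: 25 µl reactions with 0.002 nmol E. coli-expressed GST-MEK1 S218D/S222D, 0.02 nmol His-tagged mouse ERK2, 0.25 nmol MBP, 0.25 nmol unlabeled ATP and 0.1 µCi [γ-33P]ATP. Compound preincubated 30 min at ambient temperature with MEK1/ERK2; stopped with TCA, 33P-labelled protein filter-captured and scintillation-counted.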

T1 sequence (Q02750 whole entry S218D/S222D): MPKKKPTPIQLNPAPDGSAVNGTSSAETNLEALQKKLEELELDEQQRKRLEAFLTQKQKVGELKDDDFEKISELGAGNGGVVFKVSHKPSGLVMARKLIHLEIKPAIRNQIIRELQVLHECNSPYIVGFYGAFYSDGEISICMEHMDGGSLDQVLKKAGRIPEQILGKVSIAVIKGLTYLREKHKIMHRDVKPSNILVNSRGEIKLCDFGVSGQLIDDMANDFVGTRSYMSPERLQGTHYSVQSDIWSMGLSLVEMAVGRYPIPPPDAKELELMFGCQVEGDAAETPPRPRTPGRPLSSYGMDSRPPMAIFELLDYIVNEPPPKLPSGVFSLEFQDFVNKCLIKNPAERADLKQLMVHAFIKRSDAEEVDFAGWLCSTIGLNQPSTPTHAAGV

| pIC50 | SMILES |
| --- | --- |
| 7.00 to 9.00 | COCCNC(=N)c1c(O)nsc1Nc1ccc(Oc2cc(F)cc(F)c2)cc1C [compound 470] |
| 7.00 to 9.00 | CC(C)NC(=N)c1c(O)nsc1Nc1cc(F)c(Oc2cc(Cl)ccc2Cl)cc1F [compound 475] |
| 7.00 to 9.00 | CNC(=N)c1c(O)nsc1Nc1ccc(Oc2ccccc2)cc1 [compound 198] |
| < 6.30 | Cc1cccc(C)c1Oc1ccc(Nc2snc(O)c2C(=N)NC(C)C)cc1 [compound 271] |
| < 6.30 | Oc1nsc(Nc2ccc(Oc3ccccc3)cc2)c1-c1noc(-c2ccccc2)n1 [compound 149] |
| 7.00 to 9.00 | CCOC(=O)c1ccc(Oc2ccc(Nc3snc(O)c3C(=N)NC(C)CO)cc2)cc1 (stereo not drawn) [compound 497] |
| 7.00 to 9.00 | CC(C)NC(=N)c1c(O)nsc1Nc1ccc(Oc2ccc(Br)cc2)c(F)c1 [compound 330] |
| 6.30 to 7.00 | CCC(CO)NC(=N)c1c(O)nsc1Nc1ccc(Oc2cccc(F)c2F)cc1C (stereo not drawn) [compound 504] |
| 7.00 to 9.00 | CC(CO)NC(=N)c1c(O)nsc1Nc1ccc(Oc2ccc(Br)c3ccccc23)cc1 (stereo not drawn) [compound 337] |
| < 6.30 | N=C(NC1CC1)c1c(O)nsc1Nc1ccc(Oc2ccccc2)cc1 [compound 44] |
| 7.00 to 9.00 | N=C(NC1CCCC1)c1c(O)nsc1Nc1ccc(Oc2ccccc2)cc1 [Cpd 12] |
| 6.30 to 7.00 | CN(O)C(=N)c1c(O)nsc1Nc1ccc(Oc2ccccc2)cc1 [compound 139] |
| 7.00 to 9.00 | CC(CO)NC(=N)c1c(O)nsc1Nc1ccc(Oc2ccc(F)cc2)c(F)c1 (stereo not drawn) [compound 393] |
| < 6.30 | N=C(NCCOc1ccccc1)c1c(O)nsc1NCC1CCCO1 (stereo not drawn) [compound 113] |
| 7.00 to 9.00 | CC1(C)C2CCC1[C@H](CNC(=N)c1c(O)nsc1Nc1ccc(Oc3ccccc3)cc1)CC2 (stereo partly drawn) [compound 46] |
| < 6.30 | N=C(NCC1CCCCC1)c1c(O)nsc1Nc1ccc(Cl)nc1 [compound 126] |
| 7.00 to 9.00 | CC(C)N(O)C(=N)c1c(O)nsc1Nc1ccc(Oc2ccccc2)cc1 [compound 144] |
| < 6.30 | CCn1sc(Nc2ccc(Oc3ccccc3)cc2)c(C(=N)NC(C)C)c1=O [compound 194] |
| 6.30 to 7.00 | CCOC(=O)c1ccc(Oc2ccc(Nc3snc(O)c3C(=N)NC(C)C)cc2)cc1 [compound 485] |
| 7.00 to 9.00 | Cc1cc(Oc2cccc(C(F)(F)F)c2)ccc1Nc1snc(O)c1C(=N)NCC(O)CO (stereo not drawn) [compound 472] |
| 7.00 to 9.00 | CC(CNC(=N)c1c(O)nsc1Nc1ccc(Oc2ccccc2)cc1)c1ccccc1 (stereo not drawn) [Cpd 15] |
| < 6.30 | CC(CO)NC(=N)c1c(O)nsc1Nc1ccc(-n2cccn2)cc1 (stereo not drawn) [compound 315] |
| < 6.30 | CN1CCCC1CCNC(=N)c1c(O)nsc1Nc1ccc(Oc2ccccc2)cc1 (stereo not drawn) [compound 148] |
| 7.00 to 9.00 | N=C(NCC1CCCCC1)c1c(O)nsc1Nc1ccc(Sc2ccccc2)cc1 [compound 100] |
| 7.00 to 9.00 | CC(C)NC(=N)c1c(O)nsc1Nc1ccc(Oc2cccc(C(F)(F)F)c2)cc1 [compound 275] |

| pIC50 | SMILES |
| --- | --- |
| < 6.30 | N=C(NCC1CCCCC1)c1c(O)nsc1NCc1ccc(C(F)(F)F)cc1 [compound 108] |
| 6.30 to 7.00 | COc1ccc(Oc2ccc(Nc3snc(O)c3C(=N)NCC3CCCCC3)cc2)cc1 [compound 141] |
| < 6.30 | N=C(NCC1CCCCC1)c1c(O)nsc1Nc1cccc(Cl)c1Cl [compound 96] |
| < 6.30 | CC(C)c1ccc(Nc2snc(O)c2C(N)=NCC2CCCCC2)cc1 [compound 80] |
| < 6.30 | CCCCCNc1snc(O)c1C(=N)NCC1CCCCC1 [compound 121] |
| 6.30 to 7.00 | CC(C)NC(=N)c1c(O)nsc1Nc1ccc(/C=C/c2ccccc2)cc1 [compound 241] |
| 7.00 to 9.00 | C[C@H](CO)NC(=N)c1c(O)nsc1Nc1ccc(Oc2ccccc2)cc1 [compound 175] |
| 7.00 to 9.00 | Cc1cc(Oc2cc(F)cc(F)c2)ccc1Nc1snc(O)c1C(=N)NC(C)CO (stereo not drawn) [compound 458] |
| 7.00 to 9.00 | N=C(NCC(c1ccccc1)c1ccccc1)c1c(O)nsc1Nc1ccc(Oc2ccccc2)cc1 [compound 48] |
| 7.00 to 9.00 | N=C(NCCCO)c1c(O)nsc1Nc1ccc(Oc2ccccc2)cc1 [compound 31] |
| 7.00 to 9.00 | Cc1cc(Oc2cccc(C(F)(F)F)c2)ccc1Nc1snc(O)c1C(=N)NC(C)C [compound 437] |
| < 6.30 | N=C(NCC(O)CO)c1c(O)nsc1Nc1ccc(I)cc1 (stereo not drawn) [compound 216] |
| 6.30 to 7.00 | CC(C)NC(=N)c1c(O)nsc1Nc1ccc(Oc2ccc(C(F)(F)F)cc2)cc1 [compound 391] |
| 7.00 to 9.00 | CC(CCc1ccccc1)NC(=N)c1c(O)nsc1Nc1ccc(Oc2ccccc2)cc1 (stereo not drawn) [compound 50] |
| 6.30 to 7.00 | N=C(NCC1(O)CCCCC1)c1c(O)nsc1Nc1ccc(Oc2ccccc2)cc1 [compound 189] |
| 6.30 to 7.00 | N=C(NCC1CCCCC1)c1c(O)nsc1Nc1cccc([N+](=O)[O-])c1 [compound 82] |
| < 6.30 | CC(O)CNC(=N)c1c(O)nsc1Nc1ccc(Oc2ccccc2C(=O)NCC(C)O)cc1 (stereo not drawn) [compound 507] |
| 7.00 to 9.00 | CC(CO)NC(=N)c1c(O)nsc1Nc1ccc(Oc2cc(Cl)ccc2Cl)nc1 (stereo not drawn) [compound 434] |
| 7.00 to 9.00 | CC(CO)NC(=N)c1c(O)nsc1Nc1ccc(Oc2ccccc2F)c(F)c1 (stereo not drawn) [compound 303] |
| 6.30 to 7.00 | CC(C)NC(=N)c1c(O)nsc1Nc1ccc(Oc2ccc(C(F)(F)F)cc2)c(F)c1 [compound 390] |
| 7.00 to 9.00 | CC(C)NC(=N)c1c(O)nsc1Nc1ccc(Oc2cc(F)cc(F)c2Cl)c(F)c1 [compound 328] |
| 6.30 to 7.00 | N=C(NC1CC1)c1c(O)nsc1Nc1ccc(Oc2cc(F)cc(F)c2)cc1 [compound 416] |
| < 6.30 | CC(C)NC(=N)c1c(O)nsc1Nc1ccc(Oc2cccnc2)c(Cl)c1 [compound 336] |
| 7.00 to 9.00 | N=C(NCC(O)c1cccc(O)c1)c1c(O)nsc1Nc1ccc(Oc2ccccc2)cc1 (stereo not drawn) [compound 166] |
| 7.00 to 9.00 | C[C@H](NC(=N)c1c(O)nsc1Nc1ccc(Oc2ccccc2)cc1)[C@@H](O)c1ccccc1 [compound 159] |

| pIC50 | SMILES |
| --- | --- |
| 7.00 to 9.00 | COc1ccc(Nc2snc(O)c2C(=N)NCC2CCCCC2)cn1 [compound 77] |
| 7.00 to 9.00 | Cc1ccccc1Oc1ccc(Nc2snc(O)c2C(=N)NC(C)C)cc1 [compound 301] |
| 7.00 to 9.00 | Cc1cc(Nc2snc(O)c2C(=N)NC(C)C)ccc1Oc1ccccc1Cl [compound 316] |
| < 6.30 | CCOC(=O)c1cccc(Nc2snc(O)c2C(=N)NCC(C)O)c1 (stereo not drawn) [compound 496] |
| 7.00 to 9.00 | CC(CO)NC(=N)c1c(O)nsc1Nc1ccc(Oc2cccc(F)c2)c(F)c1 (stereo not drawn) [compound 362] |
| < 6.30 | CCCC1CCC(c2ccc(Nc3snc(O)c3C(=N)NCC3CCCCC3)cc2)CC1 (stereo not drawn) [compound 58] |
| 7.00 to 9.00 | CC(C)NC(=N)c1c(O)nsc1Nc1ccc(Oc2ccc(F)cc2Cl)c(F)c1 [compound 369] |
| 6.30 to 7.00 | N=C(NCCN1CCNCC1)c1c(O)nsc1Nc1ccc(Oc2ccc(Cl)cc2Cl)cc1 [compound 428] |
| < 6.30 | N=C(NCC(O)CO)c1c(O)nsc1Nc1ccc([C@H]2CC[C@H](O)CC2)cc1 (stereo partly drawn) [compound 196] |
| 7.00 to 9.00 | CC(C)NC(=N)c1c(O)nsc1Nc1ccc(Oc2ccc(F)cc2Cl)cc1C(F)(F)F [compound 407] |
| 7.00 to 9.00 | CC(C)NC(=N)c1c(O)nsc1Nc1ccc(Oc2cc(F)cc(F)c2Cl)cc1 [compound 329] |
| < 6.30 | N=C(NCC(O)CO)c1c(O)nsc1Nc1ccccc1F (stereo not drawn) [compound 69] |
| 6.30 to 7.00 | COC(=O)c1cccc(Nc2snc(O)c2C(=N)NCC(O)O)c1C [compound 499] |
| 6.30 to 7.00 | Cc1ccc(Oc2ccc(Nc3snc(O)c3C(=N)NC(C)CO)cc2)cc1 (stereo not drawn) [compound 247] |
| < 6.30 | N=C(NCC(O)CO)c1c(O)nsc1Nc1ccc(C2CCCCC2)cc1 (stereo not drawn) [compound 186] |
| < 6.30 | N=C(NCC(O)CO)c1c(O)nsc1Nc1ccc(CO)cc1 (stereo not drawn) [compound 64] |
| < 6.30 | CC(C)NC(=N)c1c(O)nsc1Nc1ccc(Cl)nc1 [compound 264] |
| 7.00 to 9.00 | N=C(NCCO)c1c(O)nsc1Nc1ccc(Oc2ccccc2Cl)cc1 [compound 213] |
| < 6.30 | CC(CO)NC(=N)c1c(O)nsc1Nc1ccccc1Oc1ccccc1 (stereo not drawn) [compound 439] |
| 7.00 to 9.00 | CCCCCCCNC(=N)c1c(O)nsc1Nc1ccc(Oc2ccccc2)cc1 [Cpd 10] |
| 7.00 to 9.00 | N=C(NCC(O)O)c1c(O)nsc1Nc1ccc(Oc2ccc(Cl)cc2Cl)cc1 [compound 229] |
| 7.00 to 9.00 | N=C(NCc1ccccn1)c1c(O)nsc1Nc1ccc(Oc2cc(Cl)ccc2Cl)cc1 [compound 448] |
| 6.30 to 7.00 | Cc1cc(Oc2cccc(F)c2F)ccc1Nc1snc(O)c1C(=N)N(O)C(C)C [compound 501] |
| 7.00 to 9.00 | Cc1cc(Oc2cc(Cl)ccc2Cl)ccc1Nc1snc(O)c1C(=N)NC(C)CO (stereo not drawn) [compound 461] |
| < 6.30 | N=C(NCC1CCCCC1)c1c(O)nsc1NC1CCCCC1 [compound 90] |

same assay, conditions: Table 2, Ar1-A contains an amido or indolo group; read-out: IC 50

| pIC50 | SMILES |
| --- | --- |
| < 6.00 | CC(C)NC(=N)c1c(O)nsc1Nc1ccc(C(=O)Nc2ccccc2)cc1 [E-7] |
| 6.00 to 6.70 | N=C(NCCO)c1c(O)nsc1Nc1ccc(C(=O)Nc2ccccc2)cc1 [E-8] |
| < 6.00 | CC(CO)NC(=N)c1c(O)nsc1Nc1ccc(C(=O)N2CCN(C)CC2)cc1 (stereo not drawn) [E-17] |
| 6.70 to 9.00 | N=C(NCCCO)c1c(O)nsc1Nc1ccc(C(=O)N2CCc3ccccc32)cc1 [E-11] |
| 6.00 to 6.70 | CNC(=N)c1c(O)nsc1Nc1ccc(C(=O)N2CCc3cc(Cl)ccc32)cc1 [E-21] |
| < 6.00 | N=C(NCCCCO)c1c(O)nsc1Nc1ccc(C(=O)N2CCc3ccccc32)cc1 [E-14] |

same assay, conditions: Table 3, benzamides of formula X; read-out: IC 50

| pIC50 | SMILES |
| --- | --- |
| 7.00 to 9.00 | CC(C)NC(=N)c1c(O)nsc1Nc1ccc(C(=O)Nc2ccccc2)cc1 [drawing 810] |

same assay, conditions: Table 4, R' is (CH2)1 or 2-G; read-out: IC50

| pIC50 | SMILES |
| --- | --- |
| 7.00 to 9.00 | Cc1ccc(Oc2ccc(Nc3snc(O)c3C(=N)NCC3CCCCC3)cc2)cc1 [drawing 823] |
| 6.30 to 7.00 | N=C(NCC1CCCCC1)c1c(O)nsc1Nc1ccc(Sc2ccc([N+](=O)[O-])cc2)cc1 [drawing 831] |
